# From patent US20170045529A1, “METHODS OF MEASURING ANTIGEN-SPECIFIC T CELLS” (ImmusanT, Inc., priority 2014, published 2017)
# Non-standard residues stand in square brackets, D forms with d. pGlu = O=C1CC[C@@H](C(=O)O)N1
# Assays:
# Assay type in all cases: cell-based, human
# whole blood [1] = test: Whole blood IP-10 release to peptide pools and individual peptides, MAGPIX multiplex bead assay (Example 3); conditions: Table 10C, 10 uM
# whole blood [2] = test: Whole blood IL-2 release to peptide pools and individual peptides, MAGPIX multiplex bead assay (Example 3); conditions: 10 uM
# whole blood [3] = test: Whole blood IFN-γ release to peptide pools and individual peptides, MAGPIX multiplex bead assay (Example 3); conditions: 10 uM
# [4] = Subject 1, day 0 since commencing oral challenge
# [5] = Subject 1, day 6 since commencing oral challenge
# [6] = Subject 2, day 0 since commencing oral challenge
# [7] = Subject 2, day 6 since commencing oral challenge
# [8] = Subject 6, day 0 since commencing oral challenge
# [9] = Subject 6, day 6 since commencing oral challenge
# [10] = Subject 7, day 0 since commencing oral challenge
# [11] = Subject 7, day 6 since commencing oral challenge
# [12] = Subject 1 (HLA-DQ 2.5, 8), day 0 of oral challenge
# [13] = Subject 1 (HLA-DQ 2.5, 8), day 6 of oral challenge
# [14] = Subject 2 (HLA-DQ 2.5, 8), day 0 of oral challenge
# [15] = Subject 2 (HLA-DQ 2.5, 8), day 6 of oral challenge
# [16] = Subject 6 (HLA-DQ 2.5), day 0 of oral challenge
# [17] = Subject 6 (HLA-DQ 2.5), day 6 of oral challenge
# [18] = Subject 7 (HLA-DQ 2.5, 8), day 0 of oral challenge
# [19] = Subject 7 (HLA-DQ 2.5, 8), day 6 of oral challenge
substance,measurement,setting,value
(pE)PEQPIPEQPQPYPQQ-NH2 ([pGlu]PEQPIPEQPQPYPQQ-NH2; SMILES CC[C@H](C)[C@H](NC(=O)[C@@H]1CCCN1C(=O)[C@H](CCC(N)=O)NC(=O)[C@H](CCC(=O)O)NC(=O)[C@@H]1CCCN1C(=O)[C@@H]1CCC(=O)N1)C(=O)N1CCC[C@H]1C(=O)N[C@@H](CCC(=O)O)C(=O)N[C@@H](CCC(N)=O)C(=O)N1CCC[C@H]1C(=O)N[C@@H](CCC(N)=O)C(=O)N1CCC[C@H]1C(=O)N[C@@H](Cc1ccc(O)cc1)C(=O)N1CCC[C@H]1C(=O)N[C@@H](CCC(N)=O)C(=O)N[C@@H](CCC(N)=O)C(N)=O),"Whole blood IP-10 release, Concentration",whole blood [1]; [4],235 pg/mL
same,"Whole blood IP-10 release, Fold-change over medium only",whole blood [1]; [4],0.89
same,"Whole blood IP-10 release, Concentration",whole blood [1]; [5],325 pg/mL
same,"Whole blood IP-10 release, Fold-change over medium only",whole blood [1]; [5],0.97
same,"Whole blood IP-10 release, Concentration",whole blood [1]; [6],336 pg/mL
same,"Whole blood IP-10 release, Fold-change over medium only",whole blood [1]; [6],1.26
same,"Whole blood IP-10 release, Concentration",whole blood [1]; [7],1269 pg/mL
same,"Whole blood IP-10 release, Fold-change over medium only",whole blood [1]; [7],4.06
same,"Whole blood IP-10 release, Concentration",whole blood [1]; [8],3409 pg/mL
same,"Whole blood IP-10 release, Fold-change over medium only",whole blood [1]; [8],12.30
same,"Whole blood IP-10 release, Concentration",whole blood [1]; [9],10000 pg/mL
same,"Whole blood IP-10 release, Fold-change over medium only",whole blood [1]; [9],49.76
same,"Whole blood IP-10 release, Concentration",whole blood [1]; [10],713 pg/mL
same,"Whole blood IP-10 release, Fold-change over medium only",whole blood [1]; [10],0.96
same,"Whole blood IP-10 release, Concentration",whole blood [1]; [11],2549 pg/mL
same,"Whole blood IP-10 release, Fold-change over medium only",whole blood [1]; [11],2.86
same,"Whole blood IL-2 release, Concentration",whole blood [2]; [12],3.2 pg/mL
same,"Whole blood IL-2 release, Fold-change over medium only",whole blood [2]; [12],1.00
same,"Whole blood IL-2 release, Concentration",whole blood [2]; [13],3.2 pg/mL
same,"Whole blood IL-2 release, Fold-change over medium only",whole blood [2]; [13],1.00
same,"Whole blood IL-2 release, Concentration",whole blood [2]; [14],3.2 pg/mL
same,"Whole blood IL-2 release, Fold-change over medium only",whole blood [2]; [14],1.00
same,"Whole blood IL-2 release, Concentration",whole blood [2]; [15],22.4 pg/mL
same,"Whole blood IL-2 release, Fold-change over medium only",whole blood [2]; [15],7.00
same,"Whole blood IL-2 release, Concentration",whole blood [2]; [16],23.3 pg/mL
same,"Whole blood IL-2 release, Fold-change over medium only",whole blood [2]; [16],4.71
same,"Whole blood IL-2 release, Concentration",whole blood [2]; [17],134.3 pg/mL
same,"Whole blood IL-2 release, Fold-change over medium only",whole blood [2]; [17],31.67
same,"Whole blood IL-2 release, Concentration",whole blood [2]; [18],106.1 pg/mL
same,"Whole blood IL-2 release, Fold-change over medium only",whole blood [2]; [18],1.69
same,"Whole blood IL-2 release, Concentration",whole blood [2]; [19],27.8 pg/mL
same,"Whole blood IL-2 release, Fold-change over medium only",whole blood [2]; [19],0.66
same,"Whole blood IFNg release, Concentration",whole blood [3]; [12],42 pg/mL
same,"Whole blood IFNg release, Fold-change over medium only",whole blood [3]; [12],0.76
same,"Whole blood IFNg release, Concentration",whole blood [3]; [13],72 pg/mL
same,"Whole blood IFNg release, Fold-change over medium only",whole blood [3]; [13],1.09
same,"Whole blood IFNg release, Concentration",whole blood [3]; [14],3.3 pg/mL
same,"Whole blood IFNg release, Fold-change over medium only",whole blood [3]; [14],0.85
same,"Whole blood IFNg release, Concentration",whole blood [3]; [15],8.6 pg/mL
same,"Whole blood IFNg release, Fold-change over medium only",whole blood [3]; [15],1.77
same,"Whole blood IFNg release, Concentration",whole blood [3]; [16],96 pg/mL
same,"Whole blood IFNg release, Fold-change over medium only",whole blood [3]; [16],0.99
same,"Whole blood IFNg release, Concentration",whole blood [3]; [17],278 pg/mL
same,"Whole blood IFNg release, Fold-change over medium only",whole blood [3]; [17],2.84
same,"Whole blood IFNg release, Concentration",whole blood [3]; [18],170 pg/mL
same,"Whole blood IFNg release, Fold-change over medium only",whole blood [3]; [18],0.71
same,"Whole blood IFNg release, Concentration",whole blood [3]; [19],102 pg/mL
same,"Whole blood IFNg release, Fold-change over medium only",whole blood [3]; [19],0.68
